“And” between values parts separate entries of the source, which are not always exact repeats. Equal values may be shown once. “Also recorded” adds a separate entry of the source.
What was measured:
AMPK = test: Phospho-AMPK immunoblot in primary hepatocytes; assay type: cell-based, mouse; details: for relative p-AMPK protein, mean: N=3 (0 μM = 1); for relative p-AMPK protein: Supp. fig.3e, individual replicates
Protocol: (§1) Immunoblotting and immunoprecipitation assays were performed as previously described, with antibodies recognizing CREB, Ser133-P-CREB, AMPK, P-AMPK, AKT, P-AKT (Cell Signaling), PGC-1α (Merck), CRTC2 (Calbiochem), PCK1 (Santa Cruz), SREBP1 (Santa Cruz), SREBP2 (BD), HA (Convance), LXRα (Santa Cruz), FLAG (Sigma), GST (Covance), HIS (Abmart), GAPDH (AOGMA), α-TUBULIN (Abmart), β-ACTIN (Abmart), and other antibodies (Supplementary Table 3). For immunostaining assays, primary cultured hepatocytes seeded on coverslips were fixed with 4% paraformaldehyde for 20 min, permeabilized with 0.3% Triton X-100 in PBS, and then blocked by 5% normal goat serum and 0.3% Triton X-100 in PBS, followed by incubation with anti-CREB (1:1000), anti-P-CREB (1:1000), or anti-HA (1:3000) antibodies for 1 h at 4 °C. Slides were then washed, and after washing, slides were incubated with fluorochrome-conjugated secondary antibodies (Invitrogen). Slides were then washed and mounted with Vectashield mounting media containing 4, 6-diamidino-2-phenylindole (DAPI).
1 Supplementary Figure 3. APC inhibits gluconeogenesis independent of CREB-phosphorylation,
2 cell toxin or AMPK activation. […]
20 e) Phosphate-AMPK level in primary hepatocytes incubated with APC or metformin (MET) at
21 indicated concentrations (0–200 μM) for 30 minutes (top). Relative P-AMPK normalized by AMPK is […]

HIS-CREB protein = molecular target: T1, HIS-CREB protein (Homo sapiens, UniProt P16220); test: Isothermal titration calorimetry; assay type: binding; details: HIS-CREB titrated into APC solution, one-site model; read-out: equilibrium dissociation constant (KD) between APC and CREB
T1 construct: made in house
Protocol: Isothermal titration calorimetry was performed using a MicroCal iTC200 calorimeter (Freiburg, Germany). The purified HIS-CREB protein and APC were diluted in buffer (PBS with 500 mM NaCl and 10% glycine, pH 8.0). APC solution was titrated by injection of HIS-CREB. The originally released heat from molecules binding was recorded and analyzed by Origin9 software (Origin Lab) supplied with the instrument.

tissue protein levels = test: Immunoblotting of tissue proteins in treated mice; assay type: in vivo, mouse; details: for Relative LXRa/ACTIN, Mean Diff. (VEH vs. treated) / Relative LXRa/ACTIN, Mean 2 (group mean) / Relative LXRa/ACTIN: Figure 7h; for Relative LXRa/ACTIN, Mean 2 (group mean): N2 = 4; for Relative LXRa/ACTIN: single replicates
Protocol: as §1

[1] = molecular target: T2, CREB-KID / CBP-KIX interaction (Homo sapiens, UniProt P16220); test: Two-hybrid assay BD-CREB-KID / AD-CBP-KIX; assay type: cell-based; details: HEK293T, 10 μM, 8-h
T2 construct: CBP-KIX and CREB-KID domains as determined by two-hybrid assay; expressed in transfected cells; host or cells: HEK293T

[2] = molecular target: T3, endogenous CREB / CRTC2 interaction (Mus musculus, UniProt Q01147); test: Co-immunoprecipitation by anti-CRTC2 antibody, primary hepatocytes: CREB; assay type: cell-based
T3 construct: endogenous in cells; host or cells: mouse primary hepatocytes
Protocol: Fig. 2 APC blocks interaction between CREB and CRTC2. a Analysis of GST-CREB immunoprecipitated with overexpressed FLAG-CRTC2 from the lysates of HEK293T cells. APC (10 μM) was added to the culture media for 1 h and the following IP mixture. The relative gray density of FLAG in GST-pull-down fraction is shown as a bar graph (bottom). One of three independent experiments is presented (top, n = 3). Data are represented as mean ± SEM); P values were determined by one-way ANOVA followed Dunnett’s multiple comparisons test. b Analysis of HA-CRTC2 immunoprecipitated with endogenous CREB from primary hepatocyte lysates. […] Data are represented as mean ± SEM; P values were determined by one-way ANOVA followed Dunnett’s multiple comparisons test. c Immunoblotting analysis of endogenous CREB, CRTC2, and CBP interaction by an anti-CRTC2 antibody from the lysate of primary hepatocytes. […] Data are represented as mean ± SEM; P values were determined by two-way ANOVA followed Bonferroni’s multiple comparisons test. d Immunoblotting analysis of protein GST-CREB recovered HIS-CRTC2-S171A proteins purified from E. coli. […] Data are represented as mean ± SEM; P values were determined by one-way ANOVA followed Dunnett’s multiple comparisons test (compared with APC = 0). […]

G6pc promoter (G6p-Luc) = test: G6p-Luc reporter in primary hepatocytes; assay type: cell-based, mouse; details: APC 10 μM, 8-h
[3] = 200 μM (first of two lines printed 200)
[4] = 200 μM (second of two lines printed 200)
[5] = Figure 6b right, N=4, VEH mean 1
[6] = Figure 6b right, individual animals, relative to VEH
[7] = Figure 8c, relative protein in DIO liver, individual samples
[8] = db/db mice, liver, group mean, N=3, VEH mean 1
[9] = db/db mice, liver, individual mouse
[10] = liver of DIO mice, individual samples, n=3
[11] = liver, CRTC2KO mice, drug minus VEH
[12] = liver, WT mice, group mean, N=4

T3 sequence (Q01147 whole entry): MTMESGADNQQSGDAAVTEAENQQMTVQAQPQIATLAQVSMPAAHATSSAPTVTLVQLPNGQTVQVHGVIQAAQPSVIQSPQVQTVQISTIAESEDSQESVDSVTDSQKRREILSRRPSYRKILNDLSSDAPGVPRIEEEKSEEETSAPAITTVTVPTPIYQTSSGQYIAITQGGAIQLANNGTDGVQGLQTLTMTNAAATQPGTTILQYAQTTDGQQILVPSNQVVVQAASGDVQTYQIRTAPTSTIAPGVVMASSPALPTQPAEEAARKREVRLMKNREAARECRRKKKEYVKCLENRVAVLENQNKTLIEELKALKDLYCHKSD
T2 sequence (P16220 87-146 limits assumed): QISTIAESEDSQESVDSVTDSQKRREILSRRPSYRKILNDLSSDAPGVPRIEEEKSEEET
T1 sequence (P16220 whole entry): as the sequence (Q01147 whole entry) above, with D8E counted along it

CC(C)=CCc1cc(C=CC(=O)O)cc(CC=C(C)C)c1O [APC, 3,5-diprenyl-4-hydroxycinnamic acid]
relative p-AMPK protein, mean (AMPK; 5 μM): 0.9451
relative p-AMPK protein, mean (AMPK; 10 μM): 0.8939
relative p-AMPK protein, mean (AMPK; 100 μM): 0.906
relative p-AMPK protein, mean (AMPK; [3]): 0.9865
relative p-AMPK protein, mean (AMPK; [4]): 1.094
relative p-AMPK protein (AMPK; 5 μM): 1.019 and 0.9566 and 0.8598
relative p-AMPK protein (AMPK; 10 μM): 0.8723 and 0.8495 and 0.96
relative p-AMPK protein (AMPK; 100 μM): 0.9495 and 0.9349 and 0.8336
relative p-AMPK protein (AMPK; [3]): 0.9904 and 0.9893 and 0.9798
relative p-AMPK protein (AMPK; [4]): 1.017 and 1.161 and 1.105
relative p-AMPK protein, column mean (AMPK; mean over all concentrations, 0 μM included): 0.971
phosphorylation of AMPK (AMPK; primary hepatocytes, up to 200 μM): did not induce phosphorylation of AMPK
Kd (HIS-CREB protein): ~3.2 µM and 3.2 µM
hepatic protein levels of PCK1 and PGC-1α (tissue protein levels; DIO and db/db mice): decreased
accumulation of mature SREBP proteins in the liver (tissue protein levels; DIO mice): reducing
protein levels of LXRα and SREBP1 in the liver (tissue protein levels; DIO mice): decreased
SREBP1/GAPDH, Predicted (LS) mean (tissue protein levels; [5]): 0.3097
SREBP2/GAPDH, Predicted (LS) mean (tissue protein levels; [5]): 0.1841
Relative SREBP1/2 protein levels: SREBP1/GAPDH (tissue protein levels; [6]): 0.2289 and 0.468 and 0.339 and 0.2027
Relative SREBP1/2 protein levels: SREBP2/GAPDH (tissue protein levels; [6]): 0.3721 and 0.1919 and 0.1184 and 0.05422
PGC1a/GAPDH density, mean (tissue protein levels; Figure 8c, DIO liver, group mean, N=3, Ctrl mean 1): 0.5994
PCK1/GAPDH density, mean (tissue protein levels; Figure 8c, DIO liver, group mean, N=3, Ctrl mean 1.007): 0.6998
Relative PGC1a/GAPDH density (tissue protein levels; [7]): 0.6916 and 0.563 and 0.5437
relative PCK1/GAPDH density (tissue protein levels; [7]): 0.6644 and 0.7152 and 0.7198
Relative LXRa/ACTIN, Mean Diff. (VEH vs. treated) (tissue protein levels; CRTC2KO): 0.1178
Relative LXRa/ACTIN, Mean 2 (group mean) (tissue protein levels; CRTC2KO): 0.6864
Relative LXRa/ACTIN (tissue protein levels; CT2KO): 0.6612 and 0.7951 and 0.6751 and 0.6141
Relative LXRa/ACTIN, Mean Diff. (VEH vs. treated) (tissue protein levels; WT): 0.3705
Relative LXRa/ACTIN, Mean 2 (group mean) (tissue protein levels; WT): 0.525
Relative LXRa/ACTIN (tissue protein levels; WT): 0.572 and 0.5732 and 0.4815 and 0.4734
Relative PCK1/TUBLIN in db/db liver, mean (tissue protein levels; [8]): 0.4585 folds
Relative PGC1a/TUBLIN in db/db liver, mean (tissue protein levels; [8]): 0.2953 folds
Relative proteins in the liver of db/db mice, PCK1/TUBLIN (tissue protein levels; [9]): 0.5197 folds and 0.4980 folds and 0.3577 folds
Relative proteins in the liver of db/db mice, PGC1a/TUBLIN (tissue protein levels; [9]): 0.2725 folds and 0.3156 folds and 0.2979 folds
relative protein levels in liver of DIO: LXRa/GAPDH (tissue protein levels; [10]): 0.741 and 0.777 and 0.8147
relative protein levels in liver of DIO: PPARa/GAPDH (tissue protein levels; [10]): 0.924 and 0.9 and 0.98
relative protein levels in liver of DIO: SREBP1/GAPDH (tissue protein levels; [10]): 0.391 and 0.515 and 0.283
relative protein levels in liver of DIO: LXRa, group mean (Mean 1) (tissue protein levels; liver of DIO mice, mean of N=3): 0.7776
relative protein levels in liver of DIO: PPARa, group mean (Mean 1) (tissue protein levels; liver of DIO mice, mean of N=3): 0.9347
relative protein levels in liver of DIO: SREBP1, group mean (Mean 1) (tissue protein levels; liver of DIO mice, mean of N=3): 0.3963
SREBP1/ACT IN CT2KO, Mean Diff. vs. VEH (tissue protein levels; [11]): -0.1371
SREBP2/ACT IN CT2KO, Mean Diff. vs. VEH (tissue protein levels; [11]): -0.0958
SREBP1/ACT IN CT2KO, mean (tissue protein levels; liver, CRTC2KO mice, group mean, N=4): 0.5503
SREBP1/ACT IN CT2KO (related SREBP1 protein levels in CRTC2KO liver) (tissue protein levels; liver, CRTC2KO mice, individual replicates, Supp.fig.5a left): 0.5592 and 0.5689 and 0.5793 and 0.4937
SREBP2/ACT IN CT2KO (related SREBP2 protein levels in CRTC2KO liver) (tissue protein levels; liver, CRTC2KO mice, individual replicates, Supp.fig.5a right): 0.6411 and 0.5673 and 0.6822 and 0.6938
SREBP1/ACT IN WT, Mean Diff. vs. VEH (tissue protein levels; liver, WT mice, drug minus VEH): -0.2945
SREBP2/ACT IN WT, Mean Diff. vs. VEH (tissue protein levels; liver, WT mice, drug minus VEH): -0.4593
SREBP1/ACT IN WT, mean (tissue protein levels; [12]): 0.6687
SREBP2/ACT IN WT, mean (tissue protein levels; [12]): 0.5653
SREBP1/ACT IN WT (related SREBP1 protein levels in liver) (tissue protein levels; liver, WT mice, individual replicates, Supp.fig.5a left): 0.6865 and 0.5728 and 0.728 and 0.6877
SREBP2/ACT IN WT (related SREBP2 protein levels in liver) (tissue protein levels; liver, WT mice, individual replicates, Supp.fig.5a right): 0.6071 and 0.5991 and 0.5115 and 0.5437
phosphorylated AKT in liver, muscle, brown and white adipose tissues (tissue protein levels; treated obese mice): enhanced
interaction of CBP-KIX and CREB-KID domains (two-hybrid) [1]: little effect; also recorded: neither APC nor A57 reduced
CREB/CRTC2 band gray signal, CRTC2-COIP fraction ([2]; Fig 2c replicates, APC+ (10 μM)): 0.6304 and 0.625 and 0.6291
endogenous CREB co-immunoprecipitated by anti-CRTC2 antibody ([2]; primary hepatocyte lysates, APC 10 μM): significantly decreased
CRTC2-S171A induced G6p-luciferase activity (G6pc promoter (G6p-Luc)): reduced

Reference: publication PMC8752738, “A propolis-derived small molecule ameliorates metabolic syndrome in obese mice by targeting the CREB/CRTC2 transcriptional complex” (Nature Communications, 2022)
